Experimental findings from patent US7488712B2, “Histone deacetylase inhibitors and methods for producing the same” (Kyushu Institute of Technology, priority 2002, dated 2009) are described below.

The IC50 is the concentration that gives 50% inhibition. High values mean weaker potency, low ones greater potency. In general, EC50 refers to the concentration needed to bring the measured effect to its halfway point. Higher therefore signals a less potent agent.

For one data set, the target named is T1, human HDAC1 (Homo sapiens, UniProt Q13547).
T1 construct: FLAG; made in house; host or cells: 293T cells (transient transfection, anti-FLAG immunoprecipitation, FLAG peptide elution)
Description: In vitro HDAC inhibition activity, [3H]-acetylated histone substrate, HDAC1. As to conditions: Table 3. It is filed as biochemical.

The test system of data set [1] is human wild-type p21 promoter. Description: p21 promoter-inducing activity (luciferase) in MFLL-9 cells. It is filed as cell-based.
The nature of the next data set: in vitro. The settings on record: human, Cancer-Cell-Selective Cytotoxicity, LD50 for normal cells/LD50 for cancer cells (TIG-3/HeLa). As for the experimental part:
Human normal lung cells (TIG-3) and human uterine cancer cells (HeLa) were used to test SCOP cytotoxicity. These TIG-3 and HeLa cells were cultured in a DMEM medium comprising 10% FBS at 37° C. in the presence of 5% carbon dioxide in a steam-saturated incubator. The TIG-3 and HeLa cells were plated in 100 μl/well of the above-described medium on a 96-well microtiter plate, at a density of 30,000 cells/well and 10,000 cells/well respectively. This was then cultured for 18 hours. Test compound solution diluted with medium was added to each well and culture was continued for another 48 hours.
30 μl of supernatant from each well was transferred to another 96-well microtiter plate (A), and the remaining supernatant was discarded. 100 μl of 0.5% Triton-X/PBS was added to each well to lyse the cells, and 30 μl was then transferred to each respective well of another 96-well microtiter plate (B). 30 μl of LDH-Cytotoxic Test (Wako) substrate solution was added to each well of these 96-well microtiter plates A and B, causing a color reaction. Once the color reaction was sufficiently progressed, it was stopped by adding 60 μl of a quenching solution. Color intensity was measured at OD560 nm using a microplate reader (Softmax). [A/(A+B)] was calculated as the free-LDH ratio. […] The higher the activity value for cancer-cell-selective cell damage (LD50 for normal cells/LD50 for cancer cells), the more that cancer-cell-selective apoptosis was induced.

The nature of data set [2]: Stability in serum (FCS), read out by p21 promoter inducing activity. It is filed as in vitro ADME. As to conditions: FCS, 37° C.; activity at incubation time zero taken as 100%; FIG. 7. As for the experimental part:
The stability of SCOP 152, SCOP 304, and SCOP 402 in serum was evaluated by the method shown below: 1 μl of 10 mM SCOP 152, SCOP 304, and SCOP 402 was added to 99 μl FCS, and incubated at 37° C. Each hour, NaCl in a sufficient amount for saturation and 1 ml of ethyl acetate were added to each mixture. After extraction, from 800 μl of the ethyl acetate phase, the ethyl acetate was distilled off, and then 100 μl of DMSO was added to the residue. The resulting solution was further diluted ten times with DMSO and used to measure p21 promoter inducing activity. Activity at incubation time zero was taken as 100%, and activities were compared (FIG. 7).

Molecules are shown by their SMILES.

T1 sequence (Q13547 whole entry): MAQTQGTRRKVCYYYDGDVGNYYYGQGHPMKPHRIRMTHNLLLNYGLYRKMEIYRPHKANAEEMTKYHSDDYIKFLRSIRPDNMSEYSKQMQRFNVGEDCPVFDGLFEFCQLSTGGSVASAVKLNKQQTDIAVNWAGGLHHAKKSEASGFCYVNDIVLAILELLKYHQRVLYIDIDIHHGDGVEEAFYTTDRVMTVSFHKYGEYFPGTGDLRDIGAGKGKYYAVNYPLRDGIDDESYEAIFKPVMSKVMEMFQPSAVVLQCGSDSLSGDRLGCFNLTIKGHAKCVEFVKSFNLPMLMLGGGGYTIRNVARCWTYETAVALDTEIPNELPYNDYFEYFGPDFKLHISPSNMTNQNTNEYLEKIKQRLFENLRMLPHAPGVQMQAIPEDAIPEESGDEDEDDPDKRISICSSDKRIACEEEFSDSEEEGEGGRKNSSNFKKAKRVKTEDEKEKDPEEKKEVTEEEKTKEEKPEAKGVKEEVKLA

As to `CC[C@H](C)[C@@H]1NC(=O)[C@@H](Cc2ccc(OC)cc2)NC(=O)[C@H](CCCCCSSc2ccncc2)NC(=O)[C@H]2CCCN2C1=O` [SCOP 402, cyclo(-L-Am7(S4Py)-D-Tyr(Me)-L-Ile-D-Pro-)], the IC50 was found to be 0.553 nM against human HDAC1 (hybrid with DTT (/DTT)) and 6.76 nM at human HDAC1 (hybrid, without DTT). The EC50 in data set [1] (Table 3, hybrid with DTT (/DTT)) was 470 nM; in data set [1] (Table 3, hybrid, without DTT), 1310 nM. For the same compound, the selectivity ratio at 48 h in “in vitro” (with DTT (/DTT)) was 27.8; in the data set “in vitro” (without DTT), 11.4. The “Retention of activity in serum” value in data set [2] is listed as “stably retain activity in serum for longer than SCOP 152”.
